# Source: publication PMC10826043 (BMC Complementary Medicine and Therapies, 2024)
# Read-outs that look alike come from different tables or passages of the source.
# Assays:
# α-amylase = settings: validation set, cited from earlier work
# [1] = biological target: T1, α-amylase from porcine pancreas (Sus scrofa, UniProt P00690); test: In vitro pancreatic α-amylase inhibitory assay (starch/DNS, 540 nm); assay type: biochemical; settings: 1% starch, pH 6.9, 25 °C, read-out: IC50 (α-amylase inhibition)
# T1 construct: α-amylase from porcine pancreas (A3176); purchased Sigma-Aldrich (Germany) A3176; host or cells: porcine pancreas (tissue-derived)
# T1 sequence (P00690 16-511): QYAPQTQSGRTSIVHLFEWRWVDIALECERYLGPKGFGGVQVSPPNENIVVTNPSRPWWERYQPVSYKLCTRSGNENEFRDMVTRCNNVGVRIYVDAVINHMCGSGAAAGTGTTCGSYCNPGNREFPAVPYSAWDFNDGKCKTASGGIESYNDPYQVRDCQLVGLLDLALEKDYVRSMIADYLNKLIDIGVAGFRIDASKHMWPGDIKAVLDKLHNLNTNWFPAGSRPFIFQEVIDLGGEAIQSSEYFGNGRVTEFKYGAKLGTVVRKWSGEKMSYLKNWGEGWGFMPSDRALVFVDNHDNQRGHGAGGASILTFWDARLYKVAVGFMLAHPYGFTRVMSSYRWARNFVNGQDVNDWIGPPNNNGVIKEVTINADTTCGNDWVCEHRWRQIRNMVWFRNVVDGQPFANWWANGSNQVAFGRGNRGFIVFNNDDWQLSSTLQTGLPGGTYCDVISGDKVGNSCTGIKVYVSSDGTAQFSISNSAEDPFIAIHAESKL
# Experimental: Analytical purity grade solvents were used throughout the study.
# With reference to the established technique, the assay was carried out quantitatively with minor adjustments. Initially, 500µL test solution was preincubated with 500µL α-amylase solution (0.55 unit/mL) at 25°C for 10 min. The α-amylase was prepared in a buffer solution (0.02M sodium phosphate pH 6.9 with 0.006M NaCl). Afterwards, 500µL of 1% w/v starch in buffer solution was mixed in and left to incubate for 10 min at 25°C. To bring the reaction to a halt, 1mL dinitrosalicylic acid (DNS) was introduced and the mixture was placed in a boiling water bath for 3.5 min. After cooling to room temperature, the mixture was then diluted using 10mL distilled water and absorbance was measured using a Laxco spectrophotometer (α1502, Laxco Inc., USA) at λ 540nm. Blanks used throughout the experiment were made by adding pure buffer instead of α-amylase solution. […] To calculate the pancreatic α-amylase inhibitory activity, the following equation was used: %Inhibtion=100×1-Abs540nmExtract-Abs540nmPositivecontrol/Abs540nmNegativecontrol-Abs540nmPositivecontrol
# [2] = study encompassing 714 medicated patients; ref [10]; cited from earlier work
smiles,measurement,setting,value
O=c1c(O)c(-c2cc(O)c(O)c(O)c2)oc2cc(O)cc(O)c12 [Myricetin],IC50,α-amylase; supplement ref [8],107 ± 6 µM
same,IC50,[1],4910 ± 60 µM
O=C(O)c1cc(O)c(O)c(O)c1 [Gallic acid],IC50,α-amylase; supplement ref [7],27.8 ± 2.06 µM
"COc1cc(O)c2c(=O)c(O)c(-c3ccc(O)c(O)c3)oc2c1 [Quercetin-7-methylether, quercetin-7-methyl ether]",IC50,[1],5010 ± 70 µM
O=C1C[C@@H](c2ccc(O)cc2)Oc2cc(O)cc(O)c21 [Naringenin],IC50,α-amylase; supplement ref [3],21.9 ± 3.21 µM
COc1cc(C(=O)O)cc(OC)c1O [Syringic acid],IC50,α-amylase; supplement ref [10],1980 ± 10 µM
O=c1cc(-c2ccccc2)oc2cc(O)cc(O)c12 [Chrysin],IC50,α-amylase; supplement ref [12],15300 ± 374 µM
"O=c1c(O)c(-c2ccc(O)cc2)oc2cc(O)ccc12 [3,7,4'-Trihydroxyflavone]",IC50,α-amylase; supplement ref [8],59 ± 4 µM
"O=c1cc(-c2ccc(O)c(O)c2)oc2cccc(O)c12 [5,3',4'-Trihydroxyflavone]",IC50,α-amylase; supplement ref [8],148 ± 5 µM
COc1cc(/C=C/C(=O)O)cc(OC)c1O [Sinapic acid],IC50,α-amylase; supplement ref [13],37000 µM
"O=c1cc(-c2ccc(O)c(O)c2)oc2cc(O)c(Cl)c(O)c12 [6-Chloro-3',4',5,7-tetrahydroxyflavone]",IC50,α-amylase; supplement ref [8],44 ± 3 µM
"Cc1c(O)cc2c(c1O)C(=O)C(Cc1ccc(O)cc1)CO2 (stereo not shown) [5,7-dihydroxy-6-methyl-3-(4′-hydroxybenzyl) chroman-4-one]",IC50,α-amylase; supplement ref [11],5990 ± 60 µM
O=C(O)/C=C/c1ccc(O)c(O)c1 [Caffeic acid],IC50,α-amylase; supplement ref [13],19400 µM
C[C@@H]1O[C@@H](OC[C@H]2O[C@@H](Oc3cc4c(O)cc(O)cc4[o+]c3-c3ccc(O)c(O)c3)[C@H](O)[C@@H](O)[C@@H]2O)[C@H](O)[C@H](O)[C@H]1O [Cyanidin-3-rutinoside],IC50,α-amylase; supplement ref [6],24.4 ± 0.1 µM
O=c1c(O)c(-c2ccc(O)c(O)c2)oc2cc(OC3OC(CO)C(O)C(O)C3O)c(O)c(O)c12 [Quercetagetin-7-O-β-D-glucopyranoside],IC50,α-amylase; supplement ref [3],8.04 ± 0.69 µM
O=c1cc(-c2ccc(O)cc2)oc2cc(O)cc(O)c12 [Apigenin],IC50,α-amylase; supplement ref [3],12.2 ± 2.14 µM
C[C@H]1O[C@H](O[C@H]2[C@H](O)[C@@H](O)[C@@H](O[C@H]3[C@H](O)[C@@H](O)C(O)O[C@@H]3CO)O[C@@H]2CO)[C@H](O)[C@@H](O)[C@@H]1N[C@H]1C=C(CO)[C@@H](O)[C@H](O)[C@H]1O (stereo partly shown) [Acarbose],participants who discontinued acarbose due to gastrointestinal side effects,[2],19%
"COc1cc(OC)c2c(c1C)O[C@H](c1ccc(O)cc1)CC2 [(2S)-4′-hydroxy-5,7-dimethoxy-8-methylflavan]",IC50,α-amylase; supplement ref [11],6030 ± 270 µM
COc1cc(C=O)ccc1O [Vanillin],IC50,α-amylase; supplement ref [13],71000 µM
COc1ccc(-c2oc3cc(O)cc(O)c3c(=O)c2O)cc1 [Kaempferide],IC50,α-amylase; supplement ref [3],22.9 ± 3.17 µM
"COc1c(-c2ccc(O)c(O)c2)oc2cc(O)cc(O)c2c1=O [Quercetin-3-methylether, quercetin-3-methyl ether]",IC50,α-amylase; supplement ref [3],13.6 ± 2.04 µM
same,IC50,[1],6370 ± 110 µM
